Target: T1, human LPAR1 (Homo sapiens, UniProt Q92633)
T1 construct: expressed in transfected cells
Experiment: Test Example 1: antagonism against response of LPA-induced increase in intracellular Ca2+ concentration in RH7777 cells stably expressing human LPAR1
Format: cell-based
Details: RH7777 cells stably expressing human LPAR1; Fluo-4 fluorescence, FDSS6000; read-out: IC50 value (concentration producing 50% antagonism against response of LPA-induced increase in intracellular Ca2+ concentration) (converted)
How it was run: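 RH7777 cells stably transfected with human LPAR1 were preincubated with test compound 30 min at 37 °C in HBSS/20 mM HEPES/probenecid/0.05% BSA buffer, pH 7.4, then LPA-stimulated.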

T1 sequence (Q92633 whole entry): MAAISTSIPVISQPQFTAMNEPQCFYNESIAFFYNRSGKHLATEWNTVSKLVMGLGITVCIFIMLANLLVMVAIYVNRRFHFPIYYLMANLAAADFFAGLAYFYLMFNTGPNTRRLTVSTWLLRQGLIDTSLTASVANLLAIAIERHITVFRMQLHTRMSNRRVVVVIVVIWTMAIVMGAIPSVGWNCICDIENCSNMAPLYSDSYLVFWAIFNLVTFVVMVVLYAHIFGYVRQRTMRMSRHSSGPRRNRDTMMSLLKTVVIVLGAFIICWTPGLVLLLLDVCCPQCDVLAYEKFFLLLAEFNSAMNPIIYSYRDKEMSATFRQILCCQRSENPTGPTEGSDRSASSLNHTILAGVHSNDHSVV

SMILES | IC50 [nM]
CCOc1cc(C(C)N(CCCCc2ccccc2)C(=O)NC(Cc2cccnc2)C(=O)O)cc(OCC)c1C (stereo not drawn) [Example 1-10] | 88.5
CCOc1cc(C(C)N(CCOCc2ccccc2)C(=O)NC2(c3nn[nH]n3)CC2)cc(OCC)c1C(C)=O (stereo not drawn) [Example 10-5] | 2.85
CCOc1c(C2CC2)ccc([C@@H](C)N(CCOC(C)c2ccccc2Cl)C(=O)NC2(C(=O)O)CCC2)c1C (stereo partly drawn) [Example 4-178] | 24
CCOc1cc([C@@H](C)N(CCCCC(C)C)C(=O)NC2(C(=O)O)CC(F)(F)C2)cc(OCC)c1C [Example 4-2] | 8.34
COc1cc(C(C)N(CCOCc2ccccc2)C(=O)NC2(C(=O)O)CC(F)(F)C2)cc(OC)c1C(C)=O (stereo not drawn) [Example 5-141] | 3.49

Now from value to molecule:

IC50 [nM] | SMILES
1.81 | CCOc1cc([C@@H](C)N(CCCCc2ccccc2)C(=O)NC2(C(=O)O)CC(F)(F)C2)cc(OCC)c1C(C)O (single isomer, unassigned) [Example 1-35]
2.75 | CCOc1cc([C@@H](C)N(CCC(F)(F)Cc2ccccc2)C(=O)NC2(C(=O)O)CC(F)(F)C2)cc(OCC)c1C(C)O (single isomer, unassigned) [Example 4-86]
6.91 | CCOc1cc([C@@H](C)N(CCCc2ccc(F)cc2)C(=O)NC2(C(=O)O)CC(F)(F)C2)cc(OCC)c1C [Example 4-5]
5.44 | CCOc1cc([C@@H](C)N(CCO[C@@H](C)c2ccccc2)C(=O)NC2(C(=O)O)CC(OC)C2)cc(OCC)c1C(C)O (stereo partly drawn) [Example 4-124]
